Series [1] addresses T1, 6-His-tagged recombinant GABARAP (Homo sapiens, UniProt O95166).
T1 construct: purchased Abcam, Cambridge, UK
Put plainly: Microscale Thermophoresis (MST) binding affinity. The method, then: The binding affinity (Kd) between the target protein (6-His-tagged recombinant GABARAP, produced by Abcam, Cambridge, UK) and peptide ligands (K1, WC8 and WC10, acquired by ProteoGenix, Schiltigheim, France) was measured by MST [22]. Briefly, histidine-tagged GABARAP was labeled by using a His-tag-specific dye for 30 min at room temperature, using either the conventional Monolith His-Tag Labeling Kit RED-tris-NTA (MO-L008) or the newer Monolith His-Tag Labeling Kit RED-tris-NTA 2nd Generation (MO-L018), both purchased from NanoTemper Technologies (GmbH, München, Germany). MST experiments were performed on both a Monolith NT.115 and a Monolith NT.115Pico instrument (NanoTemper Technologies, München, GmbH), in order to further increase the statistical significance of the attained results.
A fixed concentration of the labeled GABARAP protein was mixed with 16 1:1 serial dilutions of K1, WC8, and WC10. The protein and the peptide were incubated for 60–90 min at room temperature. The MST analysis was performed using standard capillaries, with the following experimental settings: an MST power of 40% (to create a temperature gradient) and a different excitation power in relation to the considered system and instrument (see Supplementary Materials for details, Table S1). Kd values were calculated from compound concentration-dependent changes of normalized fluorescence (Fnorm). In all the experiments, both the protein and the peptides were dissolved in PBS-T buffer (phosphate-buffered saline + 0.05% Tween™ 20; NanoTemper Technologies, GmbH) and 2.5% DMSO. The auto-fluorescence of each peptide was evaluated before proceeding to the determination of the Kd. At least two independent experiments were performed to calculate the Kd values. Data were processed using the NanoTemper MO.Affinity Analysis software (version 2.3), and the fitting was performed by using the Kd model. […]
Table S1. Summary table of the Microscale Thermophoresis (MST) experiments performed on both
Monolith NT.115 and Monolith NT.115Pico instruments. At least two independent experiments were
performed to compute the Kd value.
Protein Ligand MST Exc. Temp. [Ligand] Range SNR* Kd (µM)
Background: Microscale thermophoresis detects binding through changes in fluorescence in a small temperature gradient.

The target in series [2] is T2, GABARAP (Homo sapiens, UniProt O95166). Put plainly: Surface Plasmon Resonance (SPR), steady-state affinity. The series is classed as binding. Here is the method: SPR experiments were performed on a BIAcore 8K system (Cytiva, Marlborough, MA, USA). GABARAP was dissolved in 10 mM of sodium acetate (pH 5.5) and amine-coupled to a CM5 sensor chip (GE Healthcare, Chicago, IL, USA). The reference peptide K1 was dissolved in the running buffer (10 mM Hepes, pH 7.4, 150 mM NaCl) at concentrations of 10 μM to 156 nM. Gradient concentrations of K1 were injected at a flow rate of 30 μL/min, contact time 120 s at 25 °C. WC8 and WC10 were both dissolved in the running buffer (Sigma-Aldrich Dulbecco’s PBS, pH 7.4, 0.005% Tween™ and 5% DMSO; Sigma-Aldrich, St. Louis, MO, USA) at concentrations of 100 μM to 6.25 μM and 12.5 μM to 390 nM, respectively. Gradient concentrations of the peptides were then flowed over the chip with a flow rate of 30 μL/min, contact time 120 s at 25 °C. […] Two independent experiments for WC8 and WC10 were performed. The binding kinetics were evaluated using the BIAevaluation software package and applying the 1:1 steady-state affinity model.
T2 sequence (O95166 whole entry): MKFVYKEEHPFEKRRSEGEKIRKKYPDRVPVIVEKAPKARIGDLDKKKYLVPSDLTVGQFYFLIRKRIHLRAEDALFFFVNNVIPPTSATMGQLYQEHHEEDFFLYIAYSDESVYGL

The test system of series [3] is PC-3 prostate cancer cells. Put plainly: MTS cell viability assay on PC-3 cells. As to conditions: for cell viability: PC-3, highest tested concentration (10 µM), 96 h post-treatment, % of untreated control. (In general: Tetrazolium dyes change colour on reduction, which living cells bring about.)
Experimental: (§1) PC-3 prostate cancer cell line was purchased from the American Type Culture Collection (ATCC, Manassas, VA, USA), cultured at 37 °C and 5% CO2 in Ham’s F-12 K (Kaighn’s) basal medium (Gibco Laboratories, Grand Island, NY, USA), supplemented with 10% FBS (Gibco Laboratories) and 1% of 100 U/mL penicillin/streptomycin (Gibco Laboratories).
(§2) PC-3 and PNT2 cell lines were seeded at a density of 1 × 10^4 cells/well in 96-well plates and maintained under standard growth conditions.
(§3) After 96 h, cell viability was assessed by MTS assay according to the manufacturer’s protocol (Cell Titer 96 Aqueous One Solution Cell Proliferation Assay; Promega, Nacka, Sweden) using a 96-well-plate spectrophotometer (Varioskan Flash Multimode Reader; Thermo-Scientific, Waltham, MA, USA) set at λ = 490 nm. The absorbance value of untreated cells was set at 100% (control), and the viability of treated cells was expressed as a percentage of the control. Three independent experiments were performed in triplicate for each condition.
Series [4] is described as follows: Solubility and stability in water and PBS buffer.
Text: Initially, we verified that the peptides were water soluble and stable in the buffer in which the recombinant GABARAP protein was solved.
For series [5], the target named is T2, GABARAP. Also on record: method as in PMID 29867141. The conditions noted are these: cited from earlier work.
Series [6] concerns PC-3 prostate cancer cells. The conditions noted are these: human, 96 h, 10 µM.
Experimental: as §1, §2, §3
For series [7], the target named is T2, GABARAP. More on the design: method as in PMID 18638487. The conditions noted are these: SPR; cited from earlier work.
Where [8] appears, read: Kd (MST), Monolith NT.115Pico, GABARAP 10 nM, 25°C.
Where [9] appears, read: Kd on GABARAP, consistent among MST and SPR.

Several values for one entry are separate records, joined by “and”; a condition that tells them apart may be missing. Identical values can stand only once. Like-named read-outs stand apart in the source and are kept apart here. Bridge positions count the residues as written; N and C are the ends. Peptide text beside a SMILES is read from it.

As usually defined, the Kd is the equilibrium constant for the complex coming apart. As usually defined, the cell viability is a per cent measure of how many cells are alive, often set against a control. Low values mean more harm to the cells, high ones less harm to the cells.

T1 sequence (O95166 whole entry): as above

For `CC[C@H](C)[C@@H]1NC(=O)[C@@H](NC(=O)[C@H](CCC(=O)O)NC(=O)[C@H](Cc2c[nH]c3ccccc23)NC(=O)CNC(=O)[C@@H](N)Cc2c[nH]c3ccccc23)CSSC[C@@H](C(=O)O)NC(=O)[C@H](CCC(=O)O)NC(=O)[C@H](CC(=O)O)NC(=O)[C@H](Cc2ccccc2)NC1=O` [WC10, WGWECIFDEC] (H-WGWECIFDEC-OH; disulfide 5-10; N-terminus and C-terminus assumed), the Kd was 4.2 ± 1.8 µM in series [1] (Kd (MST), Monolith NT.115, 25°C, PBS-T, 2.5% DMSO); 3.8 ± 1.5 µM in series [1] (setting [8]); roughly 4 µM in series [1] (setting [9]); 4.9 µM in series [2]. Moreover, in series [1] (consistent among MST and SPR), the “Kd on GABARAP” value is recorded as “low micromolar range”. In series [3], the cell viability came out at 22.5%. In addition, in series [4], the “stability in water and PBS” value was “excellent stability”.

As for `CC[C@H](C)[C@@H]1NC(=O)[C@@H](NC(=O)[C@H](CCC(=O)O)NC(=O)[C@@H](N)Cc2c[nH]c3ccccc23)CSSC[C@@H](C(=O)O)NC(=O)[C@H](CCC(=O)O)NC(=O)[C@H](CC(=O)O)NC(=O)[C@H](Cc2ccccc2)NC1=O` [WC8, WECIFDEC] (H-WECIFDEC-OH; disulfide 3-8; N-terminus assumed), the Kd in series [1] (setting [8]) was determined as 20.8 ± 2.7 µM; in series [1] (setting [9]), 22 µM; in series [2], 24.8 µM. Besides, the “Kd on GABARAP” value in series [1] (consistent among MST and SPR) is listed as “low micromolar range”. In addition, in series [3] (PC-3, from 1 to 10 µM, 96 h), the “efficacy on PC-3 cells compared to Paclitaxel” value was “high efficacy”. This molecule also yielded a cell viability in series [3] of 24.06%. Further, the “stability in water and PBS” value in series [4] is listed as “excellent stability”.

Take EEWVIVSDEEIEEARQKA [AnkB-LIR]: the equilibrium dissociation constant (Kd) in series [5] was 0.00027 µM.

On to `CC(C)C[C@H](NC(=O)[C@H](Cc1c[nH]cn1)NC(=O)[C@H](CCC(=O)O)NC(=O)[C@H](Cc1c[nH]c2ccccc12)NC(=O)[C@@H](NC(=O)[C@H](Cc1ccc(O)cc1)NC(=O)[C@@H](NC(=O)[C@H](C)NC(=O)[C@@H](N)CC(=O)O)[C@@H](C)O)[C@@H](C)O)C(=O)N[C@@H](C)C(=O)N[C@@H](Cc1c[nH]c2ccccc12)C(=O)N1CCC[C@H]1C(=O)O` [Peptide K1, DATYTWEHLAWP, reference compound], for which the Kd in series [1] (Monolith NT.115, 25°C, PBS-T, 2.5% DMSO, read-out: Kd (MST)) was 2.6 ± 0.4 µM; in series [1] (Monolith NT.115Pico, GABARAP 10 nM, 25°C, read-out: Kd (MST)), 3.5 ± 0.9 µM; in series [1] (consistent among MST and SPR, read-out: Kd on GABARAP), roughly 3 µM; in series [2] (BIAcore 8K, steady-state analysis, 25 °C, read-out: Kd (SPR)) it was 3 µM; in series [7], 0.39 µM and ~0.39 µM. In series [6], this molecule gave a cell viability of 27.16%.

Source of the values: publication PMC9100651, “Focused Design of Novel Cyclic Peptides Endowed with GABARAP-Inhibiting Activity” (International Journal of Molecular Sciences, 2022).
